Entries after “also recorded” stand apart in the source; their conditions may differ. Non-standard residues stand in square brackets, D forms with d. Residues, ends and D or L forms follow the SMILES beside them. Phe(4-guanidino) = N=C(N)Nc1ccc(C[C@H](N)C(=O)O)cc1; Abu(4-SO3H) = N[C@@H](CCS(=O)(=O)O)C(=O)O
Key:
[1] = system: human cancer cell lines; conditions: cited from earlier work
[2] = system: NCI-H460 cells; assay: NCI-H460 cell viability, alamarBlue (resazurin), 96 hours; format: cell-based, human; conditions: FIG. 13
Experimental: 1) NCI-H460 cells were grown in Ham's F12 media supplemented with 10% FBS. 2) Cells were harvested and seeded into 96-well plates at 500 cells/well. 3) Compounds were made up from stock solutions and added directly to cells in doubling dilutions starting at 200 μM. Final DMSO concentration was 0.2%. 4) Cells were grown with compound for 96 hours at 37° C. 5% CO2 in a humidified atmosphere. 5) A resazurin dye composition (AlamarBlue® cell viability reagent (Life Technologies, Inc.)) 10% (v/v) was then added and incubated for a further 4 hours, and fluorescent product detected using the BMG FLUOstar plate reader. 6) Media only background readings were subtracted before data were analysed using a 4-parameter logistic equation in GraphPad Prism. The IC50 of HILR-30 was determined as 6 μM.
1) NCI-H460 cells were grown in Ham's F12 media supplemented with 10% FBS. 2) Cells were harvested and seeded into 96-well plates at 500 cells/well. 3) Olaparib was made up from stock solutions and added directly to cells in semi-log dilutions starting at 30 μM. Final DMSO concentration was 0.3%. […] 5) AlamarBlue® cell viability reagent (Life Technologies, Inc.) 10% (v/v) was then added and incubated for a further 4 hours, and fluorescent product detected using the BMG FLUOstar plate reader. 6) Data were analysed using a 4-parameter logistic equation in GraphPad Prism.

[3] = system: NCI-H460 human non-small cell lung cancer cells; conditions: cited from earlier work
[4] = system: NCI-H460 cells; assay: HILR-001 with or without 30 nM Olaparib, alamarBlue and CellTiter-Glo time course; format: cell-based, human
Experimental: Four concentrations of HILR-001 were tested in the presence or absence of 30 nM Olaparib; At each time point cell viability was measured by two assay readouts, alamarBlue® and CellTiter-Glo. Conversion of alamarBlue® to a fluorescent product serves as a readout of the metabolic activity of cells, whereas CellTiter-Glo is based on quantification of the ATP present.
1) NCI-H460 cells were grown in Ham's F12 media supplemented with 10% FBS. 2) Cells were harvested and seeded into 96-well plates at 500 cells/well. 3) HILR-001 was made up from a 10 mM stock solution and added directly to cells in doubling dilutions starting at 200 μM. Olaparib was made up from a 10 mM stock solution and added directly to cells at 30 nM. The total final DMSO concentration was 0.25%. 4) Cells were grown with compound for 24, 48, 72 or 96 hours at 37° C. 5% CO2 in a humidified atmosphere. 5) AlamarBlue® 10% (v/v) was then added and incubated for a further 4 hours, and fluorescent product detected using the BMG FLUOstar plate reader. 6) On duplicate plates the media was removed from the cells, CellTiter-Glo was diluted in PBS (1:10) and 100 μl added to the cells. 7) Plates were mixed on an orbital shaker for 2 minutes and incubated for a further 10 minutes at room temperature. Luminescent signal was then measured using the BMG FLUOstar plate reader.

[5] = system: Lactate Dehydrogenase A [LDHA]; assay: LDH activity assay on lysates of treated NCI-H460 cells; conditions: higher concentrations, particularly later time point
Experimental: Therefore a BCA assay was conducted to estimate the total amount of protein present in each LDH assay lysate and this was used to normalise the enzyme activity data. As an indication of cell viability, an Alamar blue assay was also carried out at both timepoints, to serve as an additional point of reference.
1) NCI-H460 cells were grown in Ham's F12 media supplemented with 10% FBS. 2) Cells were harvested and seeded into 96-well plates at either 500 cells/well (for the 96 h timepoint) or 5000 cells/well for the 24 h timepoint. […] 6) At the end of the assay (24 or 96 h), Alamar blue 10% (v/v) was added to one set of plates, incubated for a further 4 hours, and fluorescent product detected using the BMG FLUOstar plate reader. […] 10) LDH activity was measured in the cleared lysates using an LDH activity kit (Abeam, ab102526). 11) After preparation of the LDH activity assay reactions, according to the manufacturer's instructions, absorbance at 450 nm was measured at the initial time to determine (A450)initial 12) Further absorbance readings were taken at 3 minute intervals for up to 15 minutes.
14) The change in measurement from Tinitial to Tfinal for each sample was calculated: 11A450=(A450)final−(A450)initial 15) The NADH standard curve was used to interpolate the 11A450 for each sample to determine the amount of NADH generated by the kinase assay between Tinitial and Tfinal (B). […]

[6] = system: NCI-H460 human non-small-cell lung cancer cells; assay: Cell killing alone or in combination with 2-deoxyglucose, alamarBlue; format: cell-based; conditions: 3.125 mmol 2-DOG
Experimental: NCI-H460 human non-small-cell lung cancer cells were contacted with HILR-025 or HILR-D-07 alone or in combination with 3.125 mmol 2-DOG and cell survival was determined using AlamaBlue® cell viability reagent (Life Technologies, Inc.) in accordance with the manufacturer's instructions.

[7] = 30 nM Olaparib with 50 μM HILR-001

For “Cyc-[AAGPGGPRGPRPGGPGAA] (cyclic; cyclic peptide; (1)..(18) cyclic peptide) [SEQ ID NO: 9]”, the “activity of PRGPRP cyclic peptides with non-amphiphilic backbone” value (“activity … with non-amphiphilic backbone” for short) [1] is given as “INACTIVE”.
For “Cyc-[GGGGGGPRGPRPGGGGGG] (cyclic; cyclic peptide; (1)..(18) cyclic peptide) [SEQ ID NO: 7]”, the “activity … with non-amphiphilic backbone” value [1] is given as “INACTIVE”.
For “Cyc-[Gly-Asp-Glu-Val-NMeAsp-Sarc-Val-Trp-Trp-Arg-Arg-Trp-Trp-Arg-Arg-Trp-Trp] [HILR-D-01]”, the “cell-killing of NCI-H460 cells” value [2] was “weak but significant dose-related cell-killing; also recorded: mild but significant killing”.
In the case of “Cyc-[PRGPRPVKLALKLALKLAL] (cyclic; cyclic peptide; (1)..(19) cyclic peptide) [THR52]”, the “killing NCI-H460 human non-small cell lung cancer cells” value [3] is given as “(“THR52”) INACTIVE”.
In the case of “Cyc-[PRGPRPVKLALKLALKFP] (cyclic; cyclic peptide; (1)..(18) cyclic peptide) [THR53]”, the “killing NCI-H460 human non-small cell lung cancer cells” value [3] is given as “(“THR5”) ACTIVE”.
For “Cyc-[AAAGGGPRGPRPGGGAAA] (cyclic; Cyclic peptide; (1)..(18) cyclic peptide) [SEQ ID NO: 6]”, the “activity … with non-amphiphilic backbone” value [1] is given as “INACTIVE”.
With `O=C(c1cc(Cc2n[nH]c(=O)c3ccccc23)ccc1F)N1CCN(C(=O)C2CC2)CC1` [Olaparib, 4-[3-(4-cyclopropanecarbonylpiperazine-1-carbonyl)-4-fluorobenzyl]-2H-phthalazin-1-one] the “ATP levels (CellTiter-Glo)” value [4, 7] was “partially restored; also recorded: partially reverses”, the “HILR-001-mediated cell death (alamarBlue)” value [4, 7] was “reversed” and the “ATP levels or cancer cell death” value ([4]; 30 nM Olaparib with 100 μM and 200 μM HILR-001) was “did not affect”.
With `CC(C)[C@@H]1NC(=O)[C@@H]2CCCN2C(=O)[C@H](CCCNC(=N)N)NC(=O)[C@@H]2CCCN2C(=O)CNC(=O)[C@H](CCCNC(=N)N)NC(=O)[C@@H]2CCCN2C(=O)[C@H](Cc2c[nH]c3ccccc23)NC(=O)[C@H](Cc2c[nH]c3ccccc23)NC(=O)[C@H](Cc2ccc(NC(=N)N)cc2)NC(=O)[C@H](Cc2ccc(NC(=N)N)cc2)NC(=O)[C@H](Cc2c[nH]c3ccccc23)NC(=O)[C@H](Cc2c[nH]c3ccccc23)NC(=O)[C@H](Cc2ccc(NC(=N)N)cc2)NC(=O)[C@H](Cc2ccc(NC(=N)N)cc2)NC(=O)[C@H](Cc2c[nH]c3ccccc23)NC(=O)[C@H](Cc2c[nH]c3ccccc23)NC1=O` [HILR-030] (cyclo(PRGPRPVWW[Phe(4-guanidino)][Phe(4-guanidino)]WW[Phe(4-guanidino)][Phe(4-guanidino)]WW)) the “cell death during LDH study” value [5] was “Significant cell death”.
For `CC(C)C[C@@H]1NC(=O)[C@H](C)NC(=O)[C@H](C(C)C)NC(=O)[C@@H]2CCCN2C(=O)[C@H](CCCNC(=N)N)NC(=O)[C@@H]2CCCN2C(=O)CNC(=O)[C@H](CCCNC(=N)N)NC(=O)[C@@H]2CCCN2C(=O)[C@H](CC(C)C)NC(=O)[C@H](C)NC(=O)[C@H](CC(C)C)NC(=O)[C@H](CCCCN)NC(=O)[C@H](CC(C)C)NC(=O)[C@H](C)NC(=O)[C@H](CC(C)C)NC(=O)[C@H](CCCCN)NC1=O` [HILR-001] (HELM PEPTIDE1{P.R.G.P.R.P.V.A.L.K.L.A.L.K.L.A.L}$PEPTIDE1,PEPTIDE1,1:R1-17:R2$$$V2.0), the “killing NCI-H460 human non-small cell lung cancer cells” value [3] is listed as “(“THR54”) ACTIVE”.
In the case of “cyclo-[Pro-Hca-Gly-Pro-Hca-Pro-Val-Trp-Trp-Gpa-Gpa-Trp-Trp-Gpa-Gpa-Trp-Trp] (cyclo(P[Abu(4-SO3H)]GP[Abu(4-SO3H)]PVWW[Phe(4-guanidino)][Phe(4-guanidino)]WW[Phe(4-guanidino)][Phe(4-guanidino)]WW)) [HILR-D-07]”, the “cell killing ability with co-administration of 2-DOG” value [6] is reported as “enhanced”.
With `CC(C)[C@@H]1NC(=O)[C@@H]2CCCN2C(=O)[C@H](CCCNC(=N)N)NC(=O)[C@@H]2CCCN2C(=O)CNC(=O)[C@H](CCCNC(=N)N)NC(=O)[C@@H]2CCCN2C(=O)[C@H](Cc2c[nH]c3ccccc23)NC(=O)[C@H](Cc2c[nH]c3ccccc23)NC(=O)[C@H](CCCNC(=N)N)NC(=O)[C@H](CCCNC(=N)N)NC(=O)[C@H](Cc2c[nH]c3ccccc23)NC(=O)[C@H](Cc2c[nH]c3ccccc23)NC(=O)[C@H](CCCNC(=N)N)NC(=O)[C@H](CCCNC(=N)N)NC(=O)[C@H](Cc2c[nH]c3ccccc23)NC(=O)[C@H](Cc2c[nH]c3ccccc23)NC1=O` [HILR-025] (HELM PEPTIDE1{P.R.G.P.R.P.V.W.W.R.R.W.W.R.R.W.W}$PEPTIDE1,PEPTIDE1,1:R1-17:R2$$$V2.0) the “cell death during LDH study” value [5] was “Significant cell death” and the “cell killing ability with co-administration of 2-DOG” value [6] was “enhanced”.
